Assay results reported in ChEMBL document CHEMBL1130186, “Potent alpha 4 beta 1 peptide antagonists as potential anti-inflammatory agents” (J Med Chem, 1997).
Where a SMILES comes first, the peptide text is derived from it. Bridges are numbered along the chain shown (N, C = ends). [ ]: non-standard residue; d: D form. The star is where a group is joined. Phenylacetyl(4-OMe) = COc1ccc(CC(=O)*)cc1; 3Abz = Nc1cccc(C(=O)O)c1; βAla = NCCC(=O)O

Key:
Integrin alpha-4/beta-1 [1] = target: T1, Integrin alpha-4/beta-1 (Homo sapiens, UniProt P05556+P13612); assay: Inhibition of fluorescently labeled alpha4-beta1 positive Ramos cells binding to immobilized VCAM-1.; assay type: cell-based
Integrin alpha-4/beta-1 [2] = target: T1, Integrin alpha-4/beta-1; assay: Inhibition of alpha4-beta1 binding to VCAM-1 in ELISA.; assay type: protein-complex assay
Integrin alpha-4/beta-1 [3] = target: T1, Integrin alpha-4/beta-1; assay: Inhibition of purified alpha-4 beta-1 binding to VCAM-1 was determined in an ELISA assay.; assay type: protein-complex assay

T1 sequence (P05556 whole entry): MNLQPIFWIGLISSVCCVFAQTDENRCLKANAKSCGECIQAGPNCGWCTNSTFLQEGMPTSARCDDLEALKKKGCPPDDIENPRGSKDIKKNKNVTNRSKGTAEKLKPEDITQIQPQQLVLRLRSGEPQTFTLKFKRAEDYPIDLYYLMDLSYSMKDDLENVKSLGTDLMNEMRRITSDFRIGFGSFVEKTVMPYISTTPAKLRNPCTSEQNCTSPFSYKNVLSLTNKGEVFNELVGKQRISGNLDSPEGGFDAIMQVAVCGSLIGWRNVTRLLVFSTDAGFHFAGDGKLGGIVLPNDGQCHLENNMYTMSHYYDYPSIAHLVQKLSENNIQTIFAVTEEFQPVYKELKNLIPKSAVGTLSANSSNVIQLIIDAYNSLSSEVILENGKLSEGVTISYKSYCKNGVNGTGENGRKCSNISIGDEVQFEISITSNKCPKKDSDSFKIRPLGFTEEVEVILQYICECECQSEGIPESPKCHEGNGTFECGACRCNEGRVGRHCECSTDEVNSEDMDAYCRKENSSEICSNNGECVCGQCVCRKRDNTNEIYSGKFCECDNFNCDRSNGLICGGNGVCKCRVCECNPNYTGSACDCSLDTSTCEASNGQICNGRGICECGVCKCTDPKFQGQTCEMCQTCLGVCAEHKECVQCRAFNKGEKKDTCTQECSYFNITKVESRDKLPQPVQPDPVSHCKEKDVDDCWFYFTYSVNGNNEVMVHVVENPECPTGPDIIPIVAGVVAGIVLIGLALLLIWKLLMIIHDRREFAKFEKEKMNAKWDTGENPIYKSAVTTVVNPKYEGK
T1 sequence (P13612 whole entry): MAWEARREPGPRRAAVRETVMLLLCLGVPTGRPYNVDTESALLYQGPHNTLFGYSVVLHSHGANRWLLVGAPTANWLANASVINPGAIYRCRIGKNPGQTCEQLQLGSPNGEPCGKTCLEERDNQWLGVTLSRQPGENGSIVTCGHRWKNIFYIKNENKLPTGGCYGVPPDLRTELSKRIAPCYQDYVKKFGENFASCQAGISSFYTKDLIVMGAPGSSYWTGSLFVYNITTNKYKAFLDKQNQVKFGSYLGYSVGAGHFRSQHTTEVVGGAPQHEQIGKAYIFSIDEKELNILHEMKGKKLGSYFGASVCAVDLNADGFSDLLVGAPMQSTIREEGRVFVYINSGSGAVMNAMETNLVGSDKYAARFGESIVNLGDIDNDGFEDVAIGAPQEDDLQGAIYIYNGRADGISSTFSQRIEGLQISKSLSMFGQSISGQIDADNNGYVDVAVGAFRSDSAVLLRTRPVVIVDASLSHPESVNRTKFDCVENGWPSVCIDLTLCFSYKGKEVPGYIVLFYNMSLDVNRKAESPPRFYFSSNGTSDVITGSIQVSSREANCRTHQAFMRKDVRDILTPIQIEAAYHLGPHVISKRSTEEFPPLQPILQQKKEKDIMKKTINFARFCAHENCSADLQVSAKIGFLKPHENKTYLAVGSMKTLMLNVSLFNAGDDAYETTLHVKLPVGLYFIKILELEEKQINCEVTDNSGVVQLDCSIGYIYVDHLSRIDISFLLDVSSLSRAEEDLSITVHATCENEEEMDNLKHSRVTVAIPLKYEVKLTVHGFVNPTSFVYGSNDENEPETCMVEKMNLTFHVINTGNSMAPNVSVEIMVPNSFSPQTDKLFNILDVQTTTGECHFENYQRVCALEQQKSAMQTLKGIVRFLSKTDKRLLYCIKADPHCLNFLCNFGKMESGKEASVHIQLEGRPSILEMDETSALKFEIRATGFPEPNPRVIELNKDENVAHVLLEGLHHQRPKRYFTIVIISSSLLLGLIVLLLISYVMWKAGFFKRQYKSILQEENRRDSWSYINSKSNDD

| SMILES | IC50 (Integrin alpha-4/beta-1 [1]) | IC50 (Integrin alpha-4/beta-1 [2]) | IC50 (Integrin alpha-4/beta-1 [3]) |
| --- | --- | --- | --- |
| NC(N)=NCCC[C@H](N)C(=O)N[C@H]1CSSC[C@@H](C(=O)O)NC(=O)[C@@H]2CCCN2C(=O)[C@H](CC(=O)O)NC1=O (H-RCDPC-OH; disulfide 2-5) | 80 µM | 3.7 µM | – |
| N[C@@H](Cc1ccc(O)cc1)C(=O)N[C@H]1CSSC[C@@H](C(=O)O)NC(=O)c2cccc(c2)NC1=O (H-YC[3Abz]C-OH; disulfide 2-4) | – | 0.008 µM | – |
| NC(N)=NCCC[C@H](NC(=O)[C@@H](N)Cc1ccc(O)cc1)C(=O)N[C@H]1CSSC[C@@H](C(=O)O)NC(=O)[C@@H]2CCCN2C(=O)[C@H](CC(=O)O)NC1=O (H-YRCDPC-OH; disulfide 3-6) | 6 µM | – | 0.11 µM |
| N[C@@H](Cc1ccc(O)cc1)C(=O)N[C@H]1CSSC[C@@H](C(=O)O)NC(=O)CCNC1=O (H-YC[βAla]C-OH; disulfide 2-4) | 210 µM | – | 4.2 µM |
| COc1ccc(CC(=O)N[C@H]2CSSC[C@@H](C(=O)O)NC(=O)[C@@H]3CCCN3C(=O)[C@H](CO)NC2=O)cc1 ({Phenylacetyl(4-OMe)}-CSPC-OH; disulfide 1-4) | 3 µM | – | 0.25 µM |
| N=C(N)NCCC[C@H](NC(=O)[C@@H](N)Cc1ccc(O)cc1)C(=O)N[C@H]1CSSC[C@@H](C(=O)O)NC(=O)[C@@H]2CCCN2C(=O)[C@H](CCC(=O)O)NC1=O (H-YRCEPC-OH; disulfide 3-6) | 30 µM | – | 0.09 µM |
